In patent publication US20120277208A1 (ASTELLAS PHARMA INC., priority 2009, published 2012):

Legend:
[1] = target: T1, recombinant human liver type GK (GST-hGK2) (Homo sapiens, UniProt P35557); experiment: Measurement of glucokinase (GK) activation; assay type: biochemical; conditions: 10 min; test compound final concentration of 10 μM; 5 mM glucose; 27° C.; relative to DMSO
T1 construct: made in house; host or cells: E. coli BL21
T1 sequence (P35557 1-466 isoform P35557-2): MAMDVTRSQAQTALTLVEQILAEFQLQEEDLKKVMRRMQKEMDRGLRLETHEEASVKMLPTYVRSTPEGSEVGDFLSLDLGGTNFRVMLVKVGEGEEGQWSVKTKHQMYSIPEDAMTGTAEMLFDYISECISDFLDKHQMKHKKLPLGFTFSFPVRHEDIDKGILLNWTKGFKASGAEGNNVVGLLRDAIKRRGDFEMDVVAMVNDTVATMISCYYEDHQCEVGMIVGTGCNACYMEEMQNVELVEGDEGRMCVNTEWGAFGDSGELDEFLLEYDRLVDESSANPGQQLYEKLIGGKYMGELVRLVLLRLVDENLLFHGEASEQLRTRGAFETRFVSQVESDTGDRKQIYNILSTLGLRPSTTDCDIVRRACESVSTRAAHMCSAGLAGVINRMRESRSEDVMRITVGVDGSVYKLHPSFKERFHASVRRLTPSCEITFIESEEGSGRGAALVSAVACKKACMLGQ
Procedure: Test Example 1 Measurement of Glucokinase (GK) Activation
The present test was carried out in accordance with the method described in Science 301: 370-373, 2003 with partial modification, and is summarized as below.
First, cloning of GK (GenBank No. AK122876) was carried out. PCR was carried out using 5′-[…]-3′ (SEQ ID NO: 1) and 5′-[…]-3′ (SEQ ID NO: 2) as primers, and pME18S-FL3-Glucokinase isoform 2 as a template. The resulting reaction product was TA-cloned into a pGEM-T easy vector, and then digested with EcoRI and XhoI, and the fragment was ligated to a pGEX-5X-1 vector digested in the same manner. Using this plasmid DNA (pGEX-human Glucokinase 2), a recombinant human liver type GK (GST-hGK2) fused with GST (Glutathione S-transferase) was expressed in E. coli (strain BL21), and purified by Glutathione Sepharose.
The reaction of GK was carried out at 27° C. on a 96-well plate. First, 1 μL of a test compound diluted with dimethylsulfoxide (DMSO) (final concentration of 10 μM) was added to a 89 μL of an enzyme mixed liquid (25 mM HEPES pH 7.4, 25 mM KCl, 2 mM MgCl2, 1 mM ATP, 0.1% BSA, 1 mM DTT, 1 mM NADP (nicotinamide adenine dinucleotide phosphate), 2.5 U/mL glucose-6-phosphate dehydrogenase, GST-hGK2 adjusted to ΔODCont as described later to be about 0.05 to 0.10, all of which are final concentrations). Subsequently, 10 μL of a substrate solution (final concentration of 5 mM glucose) was added thereto to initiate the reaction. In order to quantify a final product NADPH, an absorbance at a wavelength of 340 nm was measured, and the GK activation (%) of the test compound was calculated from the increase (DOD) in the absorbance during the first 10 minutes after the initiation of the reaction, using the following formula.
GK activation (%)=[(ΔODTest)−(ΔODCont)]/(ΔODCont)×100
ΔODTest: ΔOD at the test compound
Further, Ex indicates Example compound Number.

ICR mice = experiment: Oral glucose loading test in normal mice; assay type: in vivo; conditions: Mus musculus, AUC lowering rate of blood glucose, immediately before to 2 hours after glucose loading, vs solvent control, 10 mg/kg orally, ICR mice fasted overnight, glucose loading after 30 minutes, read-out: Blood glucose level lowering rate (%)
Procedure: Test Example 2 Oral Glucose Loading Test in Normal Mice
The test compound was dissolved in a solvent (5% Cremophor, 5% aqueous DMSO solution), 10 mg/kg of the test compound was orally administered to ICR mice after fasting overnight, and after 30 minutes, oral glucose loading was carried out. Immediately before the administration of the test compound, immediately before the glucose loading, and 0.25, 0.5, 1, and 2 hours after the glucose loading, blood was collected and blood glucose levels were measured. An AUC lowering rate (%) of the blood glucose levels from immediately before the glucose loading to 2 hours after the glucose loading with respect to that of the solvent control was calculated.

CNC(=O)c1noc(-c2cnc(Oc3cc(OC(C)C)cc(C(=O)Nc4ccn(C)n4)c3)cn2)n1 [Example 138]
activation at 10 µM [1]: 316% | inhibition in vivo at 10 mg/kg (ICR mice): 61%

CC(C)Oc1cc(Oc2cnc(N(CC3CC3)C(=O)N3CCNC3=O)cn2)cc(C(=O)Nc2ccn(C)n2)c1 [Example 74]
activation at 10 µM [1]: 298% | inhibition in vivo at 10 mg/kg (ICR mice): 45%

CC(=O)N(CC1CC1)c1cc(Oc2cnc(N(CC3CC3)C(=O)C3CCOCC3)cn2)cc(C(=O)Nc2ccn(C)n2)c1 [Example 101]
activation at 10 µM [1]: 345% | inhibition in vivo at 10 mg/kg (ICR mice): 48%

CNC(=O)c1noc(-c2ccc(Oc3cc(OC(C)C)cc(C(=O)Nc4ccn(C)n4)c3)cn2)n1 [Ex 2]
activation at 10 µM [1]: 338% | inhibition in vivo at 10 mg/kg (ICR mice): 59%

C[C@@H](CO)Oc1cc(Oc2ccc(-c3nc(C(N)=O)no3)nc2)cc(C(=O)Nc2ccn(C)n2)c1 [Example 162]
activation at 10 µM [1]: 306% | inhibition in vivo at 10 mg/kg (ICR mice): 25%

COCCOCC(=O)N(CC1CC1)c1cnc(Oc2cc(OC(C)C)cc(C(=O)Nc3ccn(C)n3)c2)cn1 [Example 119]
activation at 10 µM [1]: 376% | inhibition in vivo at 10 mg/kg (ICR mice): 40%

C[C@@H](CO)Oc1cc(Oc2cnc(N(CC3CC3)C(=O)C3CCOCC3)cn2)cc(C(=O)Nc2ccn(C)n2)c1 [Ex 24]
activation at 10 µM [1]: 269% | inhibition in vivo at 10 mg/kg (ICR mice): 49%

COC[C@H](C)Oc1cc(Oc2cnc(N(CC3CC3)C(=O)CN(C)C)cn2)cc(C(=O)Nc2ccn(C)n2)c1 [Ex 29]
activation at 10 µM [1]: 287% | inhibition in vivo at 10 mg/kg (ICR mice): 49%

CC(C)Oc1cc(Oc2ccc(-c3nc(C(=O)N(C)C)no3)nc2)cc(C(=O)Nc2ccn(C)n2)c1 [Ex 10]
activation at 10 µM [1]: 380% | inhibition in vivo at 10 mg/kg (ICR mice): 61%

CC(C)Oc1cc(Oc2cnc(-c3nnc(C(=O)N(C)C)o3)cn2)cc(C(=O)Nc2ccn(C)n2)c1 [Example 98]
activation at 10 µM [1]: 498% | inhibition in vivo at 10 mg/kg (ICR mice): 54%

C[C@@H](CO)Oc1cc(Oc2cnc(N(CC3CC3)C(=O)[C@H]3CCCO3)cn2)cc(C(=O)Nc2ccn(C)n2)c1 [Example 158]
activation at 10 µM [1]: 237% | inhibition in vivo at 10 mg/kg (ICR mice): 29%

COC[C@H](C)Oc1cc(Oc2ccc(-c3nc(C(N)=O)no3)nc2)cc(C(=O)Nc2ccn(C)n2)c1 [Ex 1]
activation at 10 µM [1]: 295% | inhibition in vivo at 10 mg/kg (ICR mice): 37%

COC[C@H](C)Oc1cc(Oc2ccc(-c3noc(C(=O)N(C)C)n3)nc2)cc(C(=O)Nc2ccn(C)n2)c1 [Example 130]
activation at 10 µM [1]: 502% | inhibition in vivo at 10 mg/kg (ICR mice): 65%

CNC(=O)c1nnc(-c2ccc(Oc3cc(OC(C)C)cc(C(=O)Nc4ccn(C)n4)c3)cn2)o1 [Ex 3]
activation at 10 µM [1]: 380% | inhibition in vivo at 10 mg/kg (ICR mice): 64%

CC(C)Oc1cc(Oc2ccc(-c3nc(C(N)=O)no3)nc2)cc(C(=O)Nc2ccn(C)n2)c1 [Ex 9]
activation at 10 µM [1]: 319% | inhibition in vivo at 10 mg/kg (ICR mice): 46%

CC(C)Oc1cc(Oc2cnc(-c3noc(C(=O)N(C)C)n3)cn2)cc(C(=O)Nc2ccn(C)n2)c1 [Example 67]
activation at 10 µM [1]: 498% | inhibition in vivo at 10 mg/kg (ICR mice): 57%

CC(C)Oc1cc(Oc2cnc(N(CC3CC3)C(=O)C3CCOCC3)cn2)cc(C(=O)Nc2ccn(C)n2)c1 [Ex 23]
activation at 10 µM [1]: 347% | inhibition in vivo at 10 mg/kg (ICR mice): 52%

COCCOCC(=O)N(CC1CC1)c1cnc(Oc2cc(O[C@@H](C)CO)cc(C(=O)Nc3ccn(C)n3)c2)cn1 [Example 156, 3-[(5-{(cyclopropylmethyl)[(2-methoxyethoxy)acetyl]amino}pyrazin-2-yl)oxy]-5-{[(2S)-1-hydroxypropan-2-yl]oxy}-N-(1-methyl-1H-pyrazol-3-yl)benzamide]
activation at 10 µM [1]: 237% | inhibition in vivo at 10 mg/kg (ICR mice): 18%
